In PubChem BioAssay AID179 (DTP/NCI, 2004) one finds EC50, IC50 and outcome data, which are given here for 71 compounds.

The assay has as its system CEM cells HIV-1 protection, formazan growth assay. The assay can be described thus: NCI AIDS Antiviral Assay. Particulars: for IC50: measured here: growth of uninfected CEM cells. In short, it runs like this:
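CEM (human) cells, HIV-1 infected vs uninfected, 5-point dosing, formazan growth read-out. Retest threshold 50% protection.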

Values joined by “and” are separate entries in the source; they are usually repeats but may differ in a detail not shown here. Equal values may be shown once. Active and inactive are the calls of the source.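 How the source made its calls: active means compounds giving half or more protection of infected cells from virus-caused growth loss, again on retest; inactive means the rest.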 Where only a bound is given, the exact number is not on record here.

On to `CC(=O)c1cc2sc3ccccc3c2[nH]1`, for which the EC50 is more than 200 µM and the IC50 is more than 200 µM.

For `O=C(N/N=C(/c1ccccc1)C(F)(F)F)c1ccncc1`, the EC50 is more than 200 µM and the IC50 was more than 200 µM.

Turning to `COC1/C=C/OC2(C)Oc3c(C)c(O)c4c(O)c(c(/C=N/N5C(C)CN(Cc6ccc(O)cc6)CC5C)c(O)c4c3C2=O)NC(=O)C(C)=C/C=C/C(C)C(O)C(C)C(O)C(C)C(OC(C)=O)C1C` (configuration not stated), the EC50 was more than 200 µM and the IC50 is 7.94 µM.

For the compound `CC(=O)c1cccc(NC(=O)C(=O)C(c2cnc3ccc([N+](=O)[O-])cc3n2)[N+](=O)[O-])c1` (configuration not stated), the EC50 was more than 117 µM and the IC50 is more than 117 µM.

For the compound `Cc1cn(C2CC(ON)C(CO)O2)c(=O)[nH]c1=O` (configuration not stated), the EC50 is more than 200 µM and the half-maximal inhibitory concentration (IC50) was more than 200 µM.

Consider `Oc1cc(O)c2c(-c3c(O)c(-c4ccc(O)c(O)c4)[o+]c4cc(O)cc(O)c34)c(O)c(-c3ccc(O)c(O)c3)[o+]c2c1`, for which the result was inactive.

Turning to `CC12CCCN1C(=O)C1(C)CCCN1C2=O` (configuration not stated), the EC50 is more than 200 µM and the 50% inhibitory concentration (IC50) was more than 200 µM.

Regarding `C/C=C/C(CC(O)(C(F)(F)F)C(F)(F)F)=N/NC(N)=S`, the EC50 was more than 200 µM and the IC50 was more than 200 µM.

In the case of `CC(CNc1ccc(Cl)cc1)(CNc1ccc(Cl)cc1)[N+](=O)[O-]`, the EC50 was more than 14.8 µM and the concentration for half-maximal inhibition (IC50) is more than 14.8 µM.

Consider `COC(=O)[C@@H](COC(=O)/C=C/c1ccc(OC(C)=O)c(OC(C)=O)c1)NC(=O)/C=C/c1ccc(OC(C)=O)c(OC(C)=O)c1`, for which the EC50 was more than 100 µM and the IC50 amounted to 19.1 µM.

Turning to `CC(C)N(C(=O)C12C3C4C5(C#N)C3C1(C#N)C5C42C#N)C(C)C` (configuration not stated), the EC50 was more than 32.4 µM and the half-maximal inhibitory concentration (IC50) was more than 32.4 µM.

In the case of `CC(=O)NCCSSCc1ccccc1CS(=O)O`, the EC50 was more than 200 µM and the IC50 worked out at 105 µM.

Regarding `CCc1cc2c(oc3cc(C)ccc32)c(=O)n1C`, the EC50 is more than 200 µM and the half-maximal inhibitory concentration (IC50) is 97.7 µM.

For `CCOC(=O)c1cc(Cl)cc2c(=O)c3c(O)c4[nH]c5c(C(=O)OCC)cc(Cl)cc5c(=O)c4c(O)c3[nH]c12`, the EC50 was more than 100 µM and the IC50 was 4.9 µM.

On to `CCC1CCCCN1CC(C(C)=O)C(c1ccccc1)c1c(O)c2ccccc2oc1=O` (configuration not stated), for which the EC50 was more than 69.2 µM and the IC50 was more than 69.2 µM.

With `CN1CCN=C1c1nnn(-c2ccc([N+](=O)[O-])cc2)c1-c1ccccc1`, the EC50 was 57.5 µM and the half-inhibitory concentration (IC50) was determined as 145 µM.

`COc1ccc(-c2cc(=O)c3c(O)cc(O)cc3o2)cc1Oc1ccc(-c2cc(=O)c3c(O)cc(O)cc3o2)cc1`: the EC50 was more than 200 µM and the half-inhibitory concentration (IC50) is 2.69 µM.

On to `O=S(=O)(c1ccc(O)cc1)c1ccc(I)cc1`, for which the EC50 was more than 200 µM and the half-maximal inhibitory concentration (IC50) is 64.6 µM.

In the case of `CCOC(=O)c1[nH]n(-c2ccccc2)c(=O)c1/C=N/C(N)=S`, the EC50 was more than 200 µM and the IC50 was more than 200 µM.

`COC(=O)C1=COC(O)C2CCCC12` (configuration not stated): the EC50 was more than 1260 µM and the 50% inhibitory concentration (IC50) amounted to 107 µM.

Turning to `CCN(CC)C(=O)c1cc(OC(C)C)ccc1-c1c(C)cc(OC(C)C)c(OC)c1OC`, the EC50 was more than 214 µM and the IC50 is more than 214 µM.

For the compound `C#CCNC(=O)N(CC#C)N=O`, the EC50 was more than 1100 µM and the concentration for half-maximal inhibition (IC50) came to 166 µM.

Turning to `CN1C(=O)NC2(C1=O)C(=O)N(C)C(=O)N2C` (configuration not stated), the EC50 was more than 1100 µM and the IC50 was more than 1100 µM.

Regarding `O=C1NC(=O)[C@@H](OCC2CCCCC2)[C@@H]2OCC3OC(C(O)C3O)C12` (some centres not stated), the EC50 was more than 200 µM and the half-maximal inhibitory concentration (IC50) is more than 200 µM.

With `CC(=O)OCC1OC(n2c(=S)n(-c3ccc([N+](=O)[O-])cc3)c(=O)c3ccccc32)C(OC(C)=O)C(OC(C)=O)C1OC(C)=O` (configuration not stated), the EC50 was more than 29.5 µM and the IC50 is more than 29.5 µM.

In the case of `Cc1cccc(SCc2nc3ccccc3c(C)[n+]2[O-])c1`, the EC50 is 13.5 µM and the IC50 was 52.5 µM.

With `CCCCCCNC(=O)/C(=C/C=C/c1ccccc1)NC(=O)c1ccccc1`, the EC50 was more than 200 µM and the IC50 was determined as 49 µM.

As for `O=C(O)C12CCC(CC1=O)C2` (configuration not stated), the EC50 was more than 200 µM and the 50% inhibitory concentration (IC50) was more than 200 µM.

With `COC(=O)C12CN(C)CC(C(=O)OC)(C1=O)C(c1ccccn1)N(C)C2c1ccccn1` (configuration not stated), the EC50 was more than 51.3 µM and the IC50 came out at 36.3 µM.

Take `Cc1ccc(S(=O)(=O)N=NC=C2c3ccccc3N(O)c3ccccc32)cc1`: the result was inactive.

In the case of `O=C1c2c(nc3ccccc3c2-c2ccccc2)CN1Nc1ccccc1`, the EC50 was more than 87.1 µM and the concentration for half-maximal inhibition (IC50) was more than 87.1 µM.

Turning to `O=C1c2ccccc2C(=Nc2ccc3ccccc3c2)C1(C1=C(c2ccccc2)C(=Nc2ccc3ccccc3c2)c2ccccc21)c1ccccc1` (configuration not stated), the EC50 was more than 200 µM and the IC50 came to 11.7 µM.

Take `CCN(CC)c1c(C(=O)/C=C/c2ccc(OC)cc2)c(-c2ccccc2)nn(C)c1=O`: the EC50 is more than 9.12 µM and the IC50 was more than 9.12 µM.

As to `CCN(Cc1cccc(S(=O)(=O)[O-])c1)c1ccc(C(=C2C=CC(=[N+](CC)Cc3cccc(S(=O)(=O)O)c3)C=C2)c2ccccc2S(=O)(=O)O)cc1`, the outcome was inactive.

Take `CN(C)CCCCN1CCc2c(n(C)c3ccccc23)C1=O`: the EC50 was more than 603 µM; the IC50 was 43.7 µM and 72.4 µM.

Regarding `C=C(CCC(Cl)C(O)CO)[Si](C)(C)C` (configuration not stated), the EC50 was more than 110 µM and the IC50 was more than 110 µM.

For `Cc1ccc(NC(=O)CCC(CC(=O)C(C)(C)C)=NNC(=O)C(=O)NN)cc1C`, the EC50 is more than 3.63 µM and the IC50 came out at 2.57 µM.

For the compound `CN(CC#N)[C@H]1CCC[C@]1(O)C#C[Si](C)(C)c1ccccc1`, the EC50 was more than 16.6 µM and the 50% inhibitory concentration (IC50) was more than 16.6 µM.

Regarding `CC(C)N(C=C(C#N)C#N)C(C)C`, the EC50 was more than 200 µM and the concentration for half-maximal inhibition (IC50) was more than 200 µM.

For the compound `CC(C)CNC1=NCC(C)S1` (configuration not stated), the EC50 is more than 200 µM and the half-maximal inhibitory concentration (IC50) is more than 200 µM.

In the case of `O=C(N/N=C/c1ccccc1S(=O)(=O)O)C(=O)N/N=C/c1ccccc1S(=O)(=O)O`, the EC50 was more than 200 µM and the IC50 was more than 200 µM.

Turning to `Cc1c(Cl)cccc1N=NC(=O)NNc1cccc(Cl)c1C`, the EC50 was more than 200 µM and the IC50 turned out to be 33.1 µM.

Regarding `CC(=O)c1nc(C#N)c(N)o1`, the result was inactive.

Consider `C[C@]12CNC(=O)C=C1CC[C@@H]1C2CC[C@]2(C)NC(=O)CCC12` (some centres not stated), for which the result was inactive.

As to `CC(=O)OCC1OC(SC2=NC(=O)CS2)C(OC(C)=O)C(OC(C)=O)C1OC(C)=O` (configuration not stated), the EC50 is more than 200 µM, the result was inactive and the IC50 stood at 74.1 µM.

For `C#CCOc1cc2c(c3oc(=O)cc(CCC)c13)[C@@H](O)[C@H](C)[C@@H](C)O2`, the EC50 was more than 200 µM and the IC50 was more than 200 µM.

As for `Cc1nc2cc(Cl)cc(N)c2nc1C`, the EC50 was more than 631 µM and the IC50 was determined as 295 µM.

Consider `N.N.N.N.N.O=C([O-])C(=O)[O-].[Co+3].[O-][Cl+3]([O-])([O-])O.[O-][Cl+3]([O-])([O-])[O-]`, for which the result was inactive.

Consider `COC(OC)[C@@H](C)[C@H](O)[C@](C)(O)C1OC(C)(C)OC(C(C)C=C(C)C)C1C` (some centres not stated), for which the result was inactive.

For the compound `CCn1c(O)c(C=Nc2ccccc2)s/c1=N/Nc1nc(-c2ccc(O)c(O)c2)cs1`, the EC50 is more than 200 µM and the half-maximal inhibitory concentration (IC50) is 14.1 µM.

`CCCc1cc(=O)oc2c3c(c4c(c12)OC(C)(C)CC4)O[C@H](C)[C@@H](C)[C@H]3O`: the EC50 was more than 200 µM and the IC50 stood at 10.7 µM.

For `CCC1(c2ccc(OC)c(OC)c2)CCN2C(=O)C(O)CC21` (configuration not stated), the EC50 was more than 200 µM and the IC50 was more than 200 µM.

Consider `CCOC(=O)C/C=C\S[C@@H]1[C@H](NC(=O)COc2ccccc2)C(=O)N1C(C(=O)OCc1ccc([N+](=O)[O-])cc1)=C(C)C`, for which the EC50 is more than 4.37 µM and the half-inhibitory concentration (IC50) is more than 4.37 µM.

Regarding `CC(=O)O/N=C1\C=Cc2c(no[n+]2[O-])C1=O`, the EC50 is more than 200 µM and the half-inhibitory concentration (IC50) turned out to be 18.2 µM.

As to `CC(=O)Nc1n[n+]([O-])c2cc(C)ccc2[n+]1[O-]`, the EC50 was more than 200 µM and the IC50 turned out to be 0.955 µM.

`CN(C)c1ccc(C=Nc2ccc(S(N)(=O)=O)cc2)cc1`: the EC50 was more than 200 µM and the IC50 is more than 200 µM.

Take `Cc1cc(=O)n2cn[nH]c2n1`: the EC50 was more than 200 µM and the IC50 was more than 200 µM.

As to `CN(C(=O)C12C3C4C1(C(=O)O)C1C2C3(C(=O)O)C41C(=O)N(C)C(C)(C)C)C(C)(C)C` (configuration not stated), the EC50 is more than 17.4 µM and the 50% inhibitory concentration (IC50) was more than 17.4 µM.

For the compound `N#CCN(Cc1ccccc1)[C@@H]1CCC[C@]1(O)C#Cc1ccc2c(c1)OCO2`, the EC50 is more than 200 µM and the IC50 turned out to be 20.4 µM.

For the compound `COc1ccc(C(c2ccc3cccnc3c2O)c2oc(CO)cc(=O)c2O)cc1` (configuration not stated), the result was inactive.

Turning to `O=C1[C@H](O)[C@@H]2C(O)O[C@H]3[C@@H]2N1C[C@H]3[Si](c1ccccc1)(c1ccccc1)c1ccccc1` (some centres not stated), the EC50 is more than 200 µM and the half-inhibitory concentration (IC50) is more than 200 µM.

`Cc1c(Cl)nc(Nc2nc3ccccc3[nH]2)nc1Cl`: the result was inactive.

In the case of `CC1CC2(S(=O)(=O)c3ccccc3)ON1CC2S(=O)(=O)c1ccccc1` (configuration not stated), the outcome was inactive.

In the case of `O=C(O)C1CCCN1C(=O)c1ccccn1` (configuration not stated), the EC50 was more than 200 µM and the IC50 is more than 200 µM.

Turning to `COc1nccnc1NS(=O)(=O)c1ccc(N)cc1`, the EC50 was more than 200 µM and the half-maximal inhibitory concentration (IC50) is more than 200 µM.

Take `O=c1sccc2ccccc12`: the EC50 is more than 417 µM and the IC50 is more than 417 µM.

On to `O=C(O)CNS(=O)(=O)c1ccc(NC(=O)c2ccc(F)cc2)cc1`, for which the outcome was inactive.

For `O=C(NC/C(Cl)=C/Cl)Nc1c2ccccc2nc2ccccc12`, the EC50 is more than 200 µM and the concentration for half-maximal inhibition (IC50) was determined as 21.9 µM.

Consider `CC(=O)N1C(NN(C)C)CCN1c1ccccc1` (configuration not stated), for which the EC50 was more than 200 µM and the IC50 was found to be 32.4 µM.

In the case of `CCOC(=O)C1CN(C2CC2)CCC1=O` (configuration not stated), the EC50 was more than 200 µM and the IC50 was more than 200 µM.

Consider `CC[N+]12CC[N+](CC)(CC1)C2`, for which the EC50 was more than 708 µM and the IC50 is more than 708 µM.
